The subject of this assay is Hela and human epithelial kidney 293 cells. Put plainly: Geldanamycin treatment of cells, immunofluorescence staining with anti-α-tubulin, anti-γ-tubulin and anti-Hsp90 antibodies. It is filed as cell-based. The following applies: 1 μg/ml geldanamycin. As for the experimental part: Geldanamycin specifically interferes with the function of Hsp90 by binding to the ATP binding site of Hsp90 (Prodromou et al., 1997, Cell 90:65-75; Stebbins et al., 1997, Cell 89:239-250). Hela and human epithelial kidney 293 cells were treated with 1 μg/ml geldanamycin for times ranging from […] (15 minutes, 30 minutes, 1 hour, 5 hours, 15 hours, 20 hours and 30 hours) and were stained with anti-α-tubulin, anti-γ-tubulin and anti-Hsp90 antibodies. […] However, aberrant mitotic spindles were detected from as early as 1 hour of treatment with geldanamycin. More than 50% of the mitotic figures produced in the presence of the drug after 20 hours of treatment contained aberrant mitotic figures in which the centrosomes, the spindles, and the distribution of chromatin were severely disrupted. […] The spindles of these cells were rather asymmetric, with unequal amounts of microtubules in each hemi-spindle and spindle poles very often detached from the centrosome. The aster microtubules which are organized around the centrosome were also abnormal in number and distribution. […] About 50% of the cells contained misaligned chromosomes. Thus, while the centrosome and the cytoskeleton of interphase cells were insensitive to geldanamycin, mitotic centrosomes cannot be properly formed in the presence of geldanamycin. […] Therefore, notwithstanding the possible contribution of other non-centrosomal functions of Hsp90 to some of these phenotypes, it is clear that the inhibition of the function of Hsp90 results in abnormalities in centrosome structure.

`COC1=C2C[C@@H](C)C[C@H](OC)[C@H](O)[C@@H](C)/C=C(\C)[C@H](OC(N)=O)[C@@H](OC)/C=C\C=C(/C)C(=O)NC(=CC1=O)C2=O` [geldanamycin]: the “cells containing misaligned chromosomes” value is given as “About 50%” and the “earliest treatment time at which aberrant mitotic spindles were detected” value came out at 1 h. Moreover, the “mitotic figures that were aberrant (centrosomes, spindles and distribution of chromatin severely disrupted)” value (after 20 hours of treatment) is “More than 50%”.
